Entries after “also recorded” stand apart in the source; their conditions may differ. Like-named read-outs stand apart in the source and are kept apart here.
Experiments:
[1] = test system: acetic acid-induced bladder irritation; conditions: cat, S-norfluoxetine at 3 and 10 mg/kg; cited from earlier work
[2] = test system: acetic acid-induced bladder irritation; test: Acute cat dilute acetic acid model (cystometry, EUS-EMG); format: in vivo; conditions: for bladder capacity: intravenous, during acetic acid infusion
Description: The ability of bicifadine and milnacipran, exemplary dual acting SNRI-NMDA antagonists, to reverse the reduction in bladder capacity observed following continuous infusion of dilute acetic acid in a cat model was tested. The cat model is a commonly used model for overactive bladder (Thor and Katofiasc, 1995, J. Pharmacol. Exptl. Ther. 274: 1014-24). Female cats (2.2-3 kg B W Harlan) were anesthetized with 4% isoflurane for induction followed by intravenous administration of α-chloralose (68-75 mg/kg). An i.v. catheter was inserted in the radial vein for drug administration. A heparinized (100 units/ml) saline-filled catheter (PE-90) was inserted into the carotid artery to monitor blood pressure. A trachea tube was place to monitor respiration. Via a midline lower abdominal incision, a modified 16 gauge i.v. catheter was inserted into the bladder dome for bladder filling and pressure recording. The abdominal cavity was moistened with saline and closed by covering with a thin plastic sheet in order to maintain access to the bladder for emptying purposes. Fine silver or stainless steel wire electrodes were inserted intraurethrally into the external urethral sphincter (EUS) for electromyography (EMG). Saline was continuously infused at a rate of 0.5-1 ml(s)/min via the bladder catheter for 60 minutes to obtain baseline of lower urinary tract activity (continuous cystometry; CMG). Following the control period, a 0.5% acetic acid (AA) solution in saline was infused into the bladder at the same flow rate to induce bladder irritation. Following 30 minutes of AA infusion, in one example, 1-2 vehicle injections were made at 30 minute intervals to determine vehicle effects, if any. Subsequently, increasing doses of bicifadine (0.1, 0.3, 1, 3 and 10 mg/kg) were administered intravenously at 30-60 minute intervals in order to construct a cumulative dose-response relationship (n=6). At the end of the control saline cystometry period, the vehicle, and 15 minutes following each subsequent treatment, the infusion pump was stopped, the bladder was emptied by fluid withdrawal via the infusion catheter and a single filling cystometrogram was performed at the same flow rate in order to determine changes in bladder capacity caused by the irritation protocol and subsequent drug administration. In a second example, subsequent to AA infusion, a vehicle injection was made to ensure that there were no vehicle effects. 10 mg/kg of milnacipran was then administered intravenously. The external urethral EMG activity, bladder pressure, and volume voided was measured during saline infusion, during AA infusion, and subsequent to milnacipran administration. Data for bicifadine were analyzed by non-parametric ANOVA for repeated measures (Friedman Test) with Dunn's Multiple Comparison test for cumulative dose-response studies. All comparisons were made from the last vehicle measurement. P<0.050 was considered significant.

[3] = test system: acetic acid-induced bladder irritation; test: Acute rat dilute acetic acid model (cystometry); format: in vivo; conditions: acetic acid infusion compared to vehicle
Excerpt: The acute models described below provide methods for evaluating active agents in the treatment of overactive bladder. Briefly, the models provide a method for reducing the bladder capacity of test animals by infusing either protamine sulfate and potassium chloride (See, Chuang, Y. C. et al., Urology 61(3): 664-670 (2003)) or dilute acetic acid (See, Thor, K. and Katofiasc., M., 1995, J. Pharmacol. Exptl. Ther., 274:1014-1024; Sasaki, K. et al, J. Urol. 168(3) 1259-1264 (2002)) into the bladder. The infusates cause irritation of the bladder and a reduction in bladder capacity by selectively activating bladder afferent fibers, such as C-fiber afferents. Following irritation of the bladder, an active agent (drug) can be administered and the ability of the active agent to reverse (partially or totally) the reduction in bladder capacity resulting from the irritation, can be determined. Substances which reverse the reduction in bladder capacity can be used in the treatment of overactive bladder. Female rats (250-275 g) were anesthetized with urethane (1.2 g/kg) and a saline-filled jugular catheter (PE-50) was inserted for intravenous drug administration and a heparinized (100 units/ml) saline-filled carotid catheter (PE-50) was inserted for blood pressure monitoring. Via a midline abdominal incision from xyphoid to navel, a PE-50 catheter was inserted into the bladder dome for bladder filling and pressure recording. The abdominal cavity was moistened with saline and closed by covering with a thin plastic sheet in order to maintain access to the bladder for filling cystometry emptying purposes. […] Data for bicifadine were analyzed by non-parametric ANOVA for repeated measures (Friedman Test) with Dunn's Multiple Comparison test for cumulative dose-response studies. […] Additionally, % voiding efficiency was calculated using the following formula: ([…]/(Single Cystometrogram Bladder Capacity))*100 for bicifadine.

[4] = i.v. cumulative doses 0.1-10 mg/kg

For NCC[C@H](Oc1ccc(C(F)(F)F)cc1)c1ccccc1 [S-norfluoxetine], which “bladder capacity” value [1] is on record?
The value was “small increases”.

What about the “urethral sphincter electromyographic (EMG) activity” value [1] of the same molecule?
The value was “small increases”.

What does the source list for Cc1ccc(C23CNCC2C3)cc1 (stereo not drawn) [bicifadine]?
increase in bladder capacity ([2]; 1-10 mg/kg i.v. cumulative doses, acetic acid infusion compared to vehicle): 3 fold; increase in voiding efficiency ([2]; 1-10 mg/kg i.v., acetic acid infusion compared to vehicle): ~10%; increases in sphincter EMG during bladder filling ([2]; i.v. bicifadine, n=6 experiments): seen in two of the six experiments; arterial pressure [2, 4]: No significant decrease; also recorded: No significant changes; heart rate [2, 4]: No significant changes; contraction frequency (bladder overactivity) during continuous cystometry ([2]; i.v., 1-10 mg/kg, acetic acid infusion): reduced bladder overactivity; also recorded: dose dependent decrease from 1-10 mg/kg but this was not significant; bladder capacity [2]: significant increase; sphincter EMG activity during micturition contractions (bladder-sphincter synergy) ([2]; the two experiments with increased sphincter EMG): inhibited during micturition contractions; increase in bladder capacity ([3]; 1-10 mg/kg i.v. cumulative doses): ~100%; effect on bladder capacity ([3]; all doses (1, 3, 10 mg/kg i.v.)): had an effect on the bladder capacity; voiding efficiency ([3]; increasing i.v. doses): not effected; also recorded: basically unaffected

Which “bladder capacity” value [1] does the source give for CNCC[C@H](Oc1cccc2ccccc12)c1cccs1 [duloxetine] here?
The value was “markedly increases”.

And the “urethral sphincter electromyographic (EMG) activity” value [1]?
The value was “markedly increases”.

With CCN(CC)C(=O)C1(c2ccccc2)CC1CN (stereo not drawn) [milnacipran] as the molecule, how does the “sphincter EMG activity” value ([2]; 10 mg/kg i.v., acetic acid infusion) read?
Its value is “unexpected increase”.

What about the “increase in bladder capacity” value ([2]; 10 mg/kg i.v., acetic acid infusion compared to control) of the same molecule?
The value was ~2 fold.

And the “increase in sphincter EMG activity, Root Mean Square” value ([2]; 10 mg/kg i.v., during the period following the bladder contraction)?
The value was 82.5 millivolts.

And the “increase in sphincter EMG activity, Root Mean Square” value ([2]; 10 mg/kg i.v., during the period of bladder filling)?
The value was 19.4 millivolts.

And the “bladder capacity” value [2]?
The value was “significant increase”.

What does the source list for CNCCC(Oc1ccccc1SC)c1ccccc1 (stereo not drawn) [thionisoxetine]?
bladder capacity [1]: no effects; urethral sphincter electromyographic (EMG) activity [1]: no effects

For COc1ccc(C(CN(C)C)C2(O)CCCCC2)cc1 (stereo not drawn) [venlafaxine], which “bladder capacity” value [1] is on record?
Its value is “markedly increases”.

And the “urethral sphincter electromyographic (EMG) activity” value [1]?
The value was “markedly increases”.
